# US6740743B2, “Scorpian toxins” (E. I. du Pont de Nemours and Company, priority 1999, dated 2004)
# Tested on: Heliothis virescens larvae
# Assay: Feeding bioassay of recombinant baculoviruses expressing the scorpion peptides on Heliothis virescens larvae
# Type: in vivo
# Details: four 5-day-old larvae fed 200 mg viral-contaminated diet; symptoms examined 4, 5, 6 and 7 days after fresh diet added
# From the text: It has been shown that single amino acids residues are important for receptor binding and for biological activity of K-channel toxins (Sabatier et al. (1994) Int. J. Peptide Protein Res. 43:486-495). The cDNAs described herein were cloned into baculoviruses and used to test their activity against Lepidopteran.
# The DNA encoding the peptides was amplified by performing PCR and adding a Bgl II restriction site at the 5′ end and an Eco RI site at the 3′ end to allow cloning into the baculovirus transfer vector pAcUW21 (BD Biosciences-PharMingen, San Diego, Calif.). After amplification in E. coli the presence of the appropriate fragments was confirmed by restriction enzyme analysis. Colonies containing the appropriate fragments were isolated, propagated, and plasmid DNA was prepared for lipofectin-mediated co-transfection into insect cells with linearized polyhedrin-negative AcNPV. Co-transfections were performed essentially as described in Example 7. Polyhedrin-positive recombinant viruses were isolated employing standard plaque purification protocols and were mixed with a plug of HV diet (www.Bio-Serv.com) and fed to Heliothis virescens larvae.
# Depicted in Table 3 are the results from two independent experiments in which four 5-day-old larvae were fed 200 mg of viral-contaminated diet. The larvae were allowed to eat for 2 days or until the viral-contaminated diet was consumed, then fresh 1 g diet plugs were added to allow continued feeding.
Molecule,"Activity of Scorpion Potassium Channel Modifiers on Heliothis virescens Larvae, Experiment 1","Activity of Scorpion Potassium Channel Modifiers on Heliothis virescens Larvae, Experiment 2"
"ibj1c.pk006.h8: Buthotus judaicus scorpion potassium channel blocking toxin 15-1 homolog; mature toxin amino acids 23-58 of SEQ ID NO:16, expressed from recombinant baculovirus (GLIDVRCSASRECWEACRKVTGSGQGKCQNNQCRCY)",Slightly Active,Active (scored as active if the larvae became irritated and had contractions and died)
"ibj1c.pk005.n9: Buthotus judaicus scorpion potassium channel blocking toxin 15-1 homolog; mature toxin amino acids 23-58 of SEQ ID NO:18, expressed from recombinant baculovirus (DLIDVKCISSQECWIACKKVTGRFQGKCQNKQCRCY)",Slightly Active,Slightly Active
"ibj1c.pk007.k8: Buthotus judaicus scorpion cobatoxin 1 homolog; mature toxin amino acids 22-58 of SEQ ID NO:2, expressed from recombinant baculovirus (NFKVEAAQCYSSDCRVKCAAMGFNSGKCINSKCKCYK)",Slightly Active,Slightly Active
"ibj1c.pk005.e21: Buthotus judaicus scorpion leiuropeptide III homolog; mature toxin amino acids 31-59 of SEQ ID NO:10, expressed from recombinant baculovirus (VGCEDCPEHCSQQNARAKCENDKCVCEPK)",Slightly Active,Active (scored as active if the larvae became irritated and had contractions and died)
"ibj1c.pk007.c13: Buthotus judaicus scorpion leiurotoxin I homolog; mature toxin amino acids 38-70 of SEQ ID NO:12, expressed from recombinant baculovirus (AFCNLRRCQLICRESGLLGKCIGDRCECVPHGK)",Slightly Active,Slightly Active
"ibj1c.pk009.i6: Buthotus judaicus scorpion kaliotoxin 2 precursor homolog; mature toxin amino acids 23-59 of SEQ ID NO:6, expressed from recombinant baculovirus (QVETNVKCTGGSCASTCKRVIGVAAGKCINGRCVCYP)",Slightly Active,Slightly Active
"ibj1c.pk008.d3: Buthotus judaicus scorpion leiuropeptide I homolog; mature toxin amino acids 29-56 of SEQ ID NO:8, expressed from recombinant baculovirus (VDCEECPFHCAGKNAIPTCDDGECNCNV)",Slightly Active,Slightly Active
"ibj1c.pk006.i20: Buthotus judaicus scorpion kaliotoxin 2 precursor homolog; mature toxin amino acids 23-61 of SEQ ID NO:4, expressed from recombinant baculovirus (QYELDVTCMGGADNCVKPCYDKYGTTKTKCINDRCNCYP)",Slightly Active,Slightly Active
ibj1c.pk0002.f9 (protein) MKFLYGIILIALFLTVMIATHSEARCPNCFTTNPNAEADCKKCCGNRWGKCAGYQCVCPMK,Slightly Active,Slightly Active

# Tested on: Ca+2-activated K-channels and voltage-dependent K-channel (K(v) 1.3)
# Assay: not given
# Details: Maxi-K, medium- and small-conductance Ca+2-activated K-channels and K(v) 1.3; cited from earlier work
row,Molecule,Potency of channel inhibition
1,charybdotoxin [ChTX],in the low nanomolar range
